Test results as given in US11407740B2 (priority 2018, dated 2022).
≈ marks a conversion by molar mass, not a printed value.

These molecules were tested on E. coli (assay: Bacterial susceptibility testing, MIC by broth microdilution (CLSI)). Conditions: Escherichia coli, read-out: E. coli MIC, broth microdilution, 35° C., 18-24 h.
Protocol: Minimal inhibitory concentrations (MIC) were determined by the broth microdilution method in accordance with the Clinical and Laboratory Standards Institute (CLSI) guidelines. In brief, organism suspensions were adjusted to a 0.5 McFarland standard to yield a final inoculum between 3×10^3 and 7×10^5 colony-forming units (CFU)/mL. Drug dilutions and inocula were made in sterile, cation adjusted Mueller-Hinton Broth (Beckton Dickinson). An inoculum volume of 100 μL was added to wells containing 100 μL of broth with 2-fold serial dilutions of drug.
`C[C@@H](CC#N)NCC(Cc1nc[nH]c(=O)c1O)c1ccc(C#Cc2ccc(CN3CCOCC3)cc2)cc1` (single isomer, unassigned) [Compound 98] was tested, and the MIC was < 1 µg/mL.
With `C[C@@H](CC#N)NCC(Cc1ncnc(O)c1O)c1ccc(C#Cc2ccc(CN3CCOCC3)cc2)cc1` (single isomer, unassigned) [Compound 99] the MIC was < 1 µg/mL.
In the case of `C[C@H](CC#N)NCC(Cc1ncnc(O)c1O)c1ccc(C#Cc2ccc(CN3CCOCC3)cc2)cc1` (single isomer, unassigned) [Compound 100], the MIC is reported as < 1 µg/mL.
In the case of `O=c1[nH]cnc(C[C@@H](CNCC(F)F)c2ccc(C#Cc3ccc(CN4CCOCC4)cc3)cc2)c1O` (single isomer, unassigned) [Compound 116], the MIC is reported as 1 to 8 µg/mL (≈ 1.97 to 15.7 µM).
In the case of `O=c1[nH]cnc(C[C@H](CNCC(F)F)c2ccc(C#Cc3ccc(CN4CCOCC4)cc3)cc2)c1O` (single isomer, unassigned) [Compound 117], the MIC is reported as < 1 µg/mL.
Molecule `O=c1[nH]cnc(CC(CN[C@@H]2CCOC2)c2ccc(C#Cc3ccc(CN4CCOCC4)cc3)cc2)c1O` (single isomer, unassigned) [Compound 162] has an MIC of 1 to 8 µg/mL (≈ 1.94 to 15.5 µM).
Work on `C[C@H](CO)NCC(Cc1nc[nH]c(=O)c1O)c1ccc(C#Cc2ccc(CN3CCOCC3)cc2)cc1` (single isomer, unassigned) [Compound 170] yielded an MIC of 1 to 8 µg/mL (≈ 1.99 to 15.9 µM).
Work on `C[C@@H](CF)NCC(Cc1nc[nH]c(=O)c1O)c1ccc(C#Cc2ccc(CNC3CCS(=O)(=O)C3)cc2)cc1` (single isomer, unassigned) [Compound 178] yielded an MIC of 1 to 8 µg/mL (≈ 1.81 to 14.5 µM).
`CC(=O)N1CC[C@H](NCC(Cc2nc[nH]c(=O)c2O)c2ccc(C#Cc3ccc(CN4CCOCC4)cc3)cc2)C1` (single isomer, unassigned) [Compound 182] gave an MIC of 1 to 8 µg/mL (≈ 1.8 to 14.4 µM).
With `O=c1[nH]cnc(CC(CN[C@@H]2CCS(=O)(=O)C2)c2ccc(C#Cc3ccc(CN4CCOCC4)cc3)cc2)c1O` (single isomer, unassigned) [Compound 186] the MIC was < 1 µg/mL.
With `O=c1[nH]cnc(CC(CN[C@H]2CCS(=O)(=O)C2)c2ccc(C#Cc3ccc(CN4CCOCC4)cc3)cc2)c1O` (single isomer, unassigned) [Compound 188] the MIC was < 1 µg/mL.
In the case of `O=c1[nH]cnc(C[C@@H](CN2CC(F)C2)c2ccc(C#Cc3ccc(CN4CCOCC4)cc3)cc2)c1O` (single isomer, unassigned) [Compound 215], the MIC is reported as < 1 µg/mL.
`O=c1[nH]cnc(C[C@H](CN2CC(F)C2)c2ccc(C#Cc3ccc(CN4CCOCC4)cc3)cc2)c1O` (single isomer, unassigned) [Compound 216] was tested, and the MIC was < 1 µg/mL.
For `COC1CN(Cc2ccc(C#Cc3ccc([C@@H](CO)Cc4nc[nH]c(=O)c4O)cc3)cc2)C1` (single isomer, unassigned) [Compound 217], the MIC was < 1 µg/mL.
With `COC1CN(Cc2ccc(C#Cc3ccc([C@H](Cc4nc[nH]c(=O)c4O)CN4CC(C#N)C4)cc3)cc2)C1` (single isomer, unassigned) [Compound 218] the MIC was < 1 µg/mL.
`COC1CN(Cc2ccc(C#Cc3ccc([C@@H](Cc4nc[nH]c(=O)c4O)CN(C)C4CC4)cc3)cc2)C1` (single isomer, unassigned) [Compound 219] was tested, and the MIC was < 1 µg/mL.
`COC1CN(Cc2ccc(C#Cc3ccc([C@H](Cc4nc[nH]c(=O)c4O)CN(C)C4CC4)cc3)cc2)C1` (single isomer, unassigned) [Compound 220] was tested, and the MIC was < 1 µg/mL.
With `COC1CN(Cc2ccc(C#Cc3ccc([C@](C)(CNC4CC4)Cc4nc[nH]c(=O)c4O)cc3)cc2)C1` (single isomer, unassigned) [Compound 227] the MIC was 1 to 8 µg/mL (≈ 2.01 to 16 µM).
For `COC1CN(Cc2ccc(C#Cc3ccc([C@@](C)(CNC4CC4)Cc4nc[nH]c(=O)c4O)cc3)cc2)C1` (single isomer, unassigned) [Compound 228], the MIC was < 1 µg/mL.
`O=c1[nH]cnc(C[C@@H](CN2CC(O)C2)c2ccc(C#Cc3ccc(CN4CCOCC4)cc3)cc2)c1O` (single isomer, unassigned) [Compound 229] showed an MIC of 1 to 8 µg/mL (≈ 2 to 16 µM).
`O=c1[nH]cnc(C[C@H](CN2CC(O)C2)c2ccc(C#Cc3ccc(CN4CCOCC4)cc3)cc2)c1O` (single isomer, unassigned) [Compound 230] was tested, and the MIC was < 1 µg/mL.
With `N#CC1CN(C[C@H](Cc2nc[nH]c(=O)c2O)c2ccc(C#Cc3ccc(CN4CC[C@H](C#N)C4)cc3)cc2)C1` (single isomer, unassigned) [Compound 235] the MIC was < 1 µg/mL.
In the case of `N#CC1CN(C[C@@H](Cc2nc[nH]c(=O)c2O)c2ccc(C#Cc3ccc(CN4CC[C@H](C#N)C4)cc3)cc2)C1` (single isomer, unassigned) [Compound 236], the MIC is reported as < 1 µg/mL.
For `O=c1[nH]cnc(C[C@H](CNCCCF)c2ccc(C#Cc3ccc(CN4CCOCC4)cc3)cc2F)c1O` (single isomer, unassigned) [Compound 237], the MIC was < 1 µg/mL.
In the case of `COC1CN(Cc2ccc(C#Cc3ccc(C(CN[C@@H](C)CF)Cc4nc[nH]c(=O)c4O)c(F)c3)cc2)C1` (single isomer, unassigned) [Compound 238], the MIC is reported as < 1 µg/mL.
In the case of `C[C@@H](CF)NCC(Cc1nc[nH]c(=O)c1O)c1ccc(C#Cc2ccc(CN3CC4COCC4C3)cc2)cc1F` (single isomer, unassigned) [Compound 239], the MIC is reported as < 1 µg/mL.
With `O=c1[nH]cnc(C[C@H](CO)c2ccc(C#Cc3ccc(CN(CCO)[C@H]4CCOC4)cc3)cc2)c1O` (single isomer, unassigned) [Compound 243] the MIC was < 1 µg/mL.
In the case of `C[C@H](O)CNC[C@@H](Cc1nc[nH]c(=O)c1O)c1ccc(C#Cc2ccc(CN3CCOCC3)cc2)cc1` (single isomer, unassigned) [Compound 245], the MIC is reported as < 1 µg/mL.
Molecule `C[C@H](O)CNC[C@H](Cc1nc[nH]c(=O)c1O)c1ccc(C#Cc2ccc(CN3CCOCC3)cc2)cc1` (single isomer, unassigned) [Compound 246] has an MIC of 1 to 8 µg/mL (≈ 1.99 to 15.9 µM).
With `C[C@@H](O)CNC[C@H](Cc1nc[nH]c(=O)c1O)c1ccc(C#Cc2ccc(CN3CCOCC3)cc2)cc1` (single isomer, unassigned) [Compound 247] the MIC was 1 to 8 µg/mL (≈ 1.99 to 15.9 µM).
`C[C@@H](O)CNC[C@@H](Cc1nc[nH]c(=O)c1O)c1ccc(C#Cc2ccc(CN3CCOCC3)cc2)cc1` (single isomer, unassigned) [Compound 248] was tested, and the MIC was < 1 µg/mL.
For `COC1CN(Cc2ccc(C#Cc3ccc([C@H](CNC4(C)CC4)Cc4nc[nH]c(=O)c4O)cc3)cc2)C1` (single isomer, unassigned) [Compound 250], the MIC was < 1 µg/mL.
For `COC1CN(Cc2ccc(C#Cc3ccc([C@@H](CNC4(C)CC4)Cc4nc[nH]c(=O)c4O)cc3)cc2)C1` (single isomer, unassigned) [Compound 251], the MIC was < 1 µg/mL.
In the case of `C[C@@H](CF)NCC(Cc1nc[nH]c(=O)c1O)c1ccc(C#Cc2ccc(C(O)CO)cc2)cc1` (single isomer, unassigned) [Compound 252], the MIC is reported as < 1 µg/mL.
In the case of `CS(=O)(=O)N1CC[C@@H](NCc2ccc(C#Cc3ccc(C(CO)Cc4nc[nH]c(=O)c4O)cc3)cc2)C1` (single isomer, unassigned) [Compound 254], the MIC is reported as < 1 µg/mL.
`O=c1[nH]cnc(C[C@H](CO)c2ccc(C#Cc3ccc(C4(O)CCNCC4)cc3)cc2)c1O` (single isomer, unassigned) [Compound 266] gave an MIC of 1 to 8 µg/mL (≈ 2.24 to 18 µM).
Molecule `O=c1[nH]cnc(C[C@H](CO)c2ccc(C#Cc3ccc(CN(CCO)[C@@H]4CCOC4)cc3)cc2)c1O` (single isomer, unassigned) [Compound 269] has an MIC of 1 to 8 µg/mL (≈ 2.04 to 16.3 µM).
`O=c1[nH]cnc(C[C@H](CO)c2ccc(C#Cc3ccc(C(O)CO)cc3)cc2)c1O` (single isomer, unassigned) [Compound 270] gave an MIC of 1 to 8 µg/mL (≈ 2.46 to 19.7 µM).
In the case of `O=c1[nH]cnc(C[C@H](CO)c2ccc(C#Cc3ccc(CN4CC5(CCO5)C4)cc3)cc2F)c1O` (single isomer, unassigned) [Compound 273], the MIC is reported as < 1 µg/mL.
With `O=c1[nH]cnc(C[C@H](CN2CC(O)C2)c2ccc(C#Cc3ccc(CN4CCOCC4)cc3F)cc2)c1O` (single isomer, unassigned) [Compound 275] the MIC was < 1 µg/mL.
With `O=c1[nH]cnc(C[C@H](CN2CC(O)C2)c2ccc(C#Cc3ccc(CN4CCOCC4)c(F)c3)cc2)c1O` (single isomer, unassigned) [Compound 276] the MIC was 1 to 8 µg/mL (≈ 1.93 to 15.4 µM).
For `N#CC1CN(Cc2ccc(C#Cc3ccc([C@@H](CNCC(F)F)Cc4nc[nH]c(=O)c4O)c(F)c3)cc2)C1` (single isomer, unassigned) [Compound 279], the MIC was < 1 µg/mL.
`C[C@H](CF)NCC(Cc1nc[nH]c(=O)c1O)c1ccc(C#Cc2ccc(CN3CCOCC3)cc2)cc1F` (single isomer, unassigned) [Compound 280] was tested, and the MIC was < 1 µg/mL.

Same assay, conditions: broth microdilution, 35° C., 18-24 h
With `CO[C@@H]1CCN(Cc2ccc(C#Cc3ccc(C(CNCC(C)F)Cc4nc[nH]c(=O)c4O)cc3)cc2)C1` (single isomer, unassigned) [Compound 136] the “E. coli MIC” value was “D (D: >32 μg/mL)”.
With `CO[C@@H]1CCN(Cc2ccc(C#Cc3ccc(C(CNCC(C)F)Cc4nc[nH]c(=O)c4O)cc3)cc2)C1` (single isomer, unassigned) [Compound 137] the “E. coli MIC” value was “B (B: >1 μg/mL to ≤8.0 μg/mL)”.
For `O=c1[nH]cnc(CC(CN[C@@H]2CCOC2)c2ccc(C#Cc3ccc(CN4CCOCC4)cc3)cc2)c1O` (single isomer, unassigned) [Compound 163], the “E. coli MIC” value was “A (A: ≤1 μg/mL)”.
In the case of `C[C@@H](CO)NCC(Cc1nc[nH]c(=O)c1O)c1ccc(C#Cc2ccc(CN3CCOCC3)cc2)cc1` (single isomer, unassigned) [Compound 168], the “E. coli MIC” value is reported as “B (B: >1 μg/mL to ≤8.0 μg/mL)”.
For `C[C@@H](CO)NCC(Cc1nc[nH]c(=O)c1O)c1ccc(C#Cc2ccc(CN3CCOCC3)cc2)cc1` (single isomer, unassigned) [Compound 169], the “E. coli MIC” value was “A (A: ≤1 μg/mL)”.
With `C[C@H](CO)NCC(Cc1nc[nH]c(=O)c1O)c1ccc(C#Cc2ccc(CN3CCOCC3)cc2)cc1` (single isomer, unassigned) [Compound 171] the “E. coli MIC” value was “A (A: ≤1 μg/mL)”.
In the case of `CC(=O)N1CC[C@H](NCC(Cc2nc[nH]c(=O)c2O)c2ccc(C#Cc3ccc(CN4CCOCC4)cc3)cc2)C1` (single isomer, unassigned) [Compound 183], the “E. coli MIC” value is reported as “A (A: ≤1 μg/mL)”.
With `CC(=O)N1CC[C@@H](NCc2ccc(C#Cc3ccc(C(CO)Cc4nc[nH]c(=O)c4O)cc3)cc2)C1` (single isomer, unassigned) [Compound 233] the “E. coli MIC” value was “B (B: >1 μg/mL to ≤8.0 μg/mL)”.
`CC(=O)N1CC[C@@H](NCc2ccc(C#Cc3ccc(C(CO)Cc4nc[nH]c(=O)c4O)cc3)cc2)C1` (single isomer, unassigned) [Compound 234] was tested, and the “E. coli MIC” value was “A (A: ≤1 μg/mL)”.
